# Columns and labels:
# KES23458 = biological target: T1, KES23458 (Pseudomonas sp. AAC, UniProt Z9SKW1E3X5); test: X-ray crystallography; mass spectrometry; format: binding; conditions: crystal density atypical of PLP (PLP'), no aldimine seen; MS shows aldimine-bound unmodified PLP; covalent (Lys288 presumed); native structure 1.24 Å
# T1 construct: full length minus N-terminal Met by mass spectrometry; homodimer; phospho-His31 and phospho-His360 observed; deconvoluted MS peak 50,399 (reduced with PLP)
# T1 sequence (Z9SKW1E3X5 22-468): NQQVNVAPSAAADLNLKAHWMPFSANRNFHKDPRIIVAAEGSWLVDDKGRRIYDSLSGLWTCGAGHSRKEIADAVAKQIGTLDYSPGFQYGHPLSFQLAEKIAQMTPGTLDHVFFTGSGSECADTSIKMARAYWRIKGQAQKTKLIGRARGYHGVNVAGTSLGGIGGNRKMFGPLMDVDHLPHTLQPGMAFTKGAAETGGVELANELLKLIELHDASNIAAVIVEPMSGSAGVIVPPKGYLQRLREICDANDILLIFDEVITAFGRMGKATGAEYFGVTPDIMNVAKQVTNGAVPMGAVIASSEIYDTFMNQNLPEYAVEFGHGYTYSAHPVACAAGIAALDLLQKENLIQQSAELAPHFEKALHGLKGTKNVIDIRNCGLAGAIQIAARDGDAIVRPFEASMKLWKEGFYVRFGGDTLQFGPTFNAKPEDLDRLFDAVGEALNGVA
# KES23460 = biological target: T2, KES23460 (Pseudomonas sp. AAC, UniProt A0ABD3YRH9); test: KES23458-coupled NADH formation, A340; format: biochemical; conditions: NAD, pH […]
# T2 construct: gene FG99_15390
# T2 sequence (A0ABD3YRH9 1-498): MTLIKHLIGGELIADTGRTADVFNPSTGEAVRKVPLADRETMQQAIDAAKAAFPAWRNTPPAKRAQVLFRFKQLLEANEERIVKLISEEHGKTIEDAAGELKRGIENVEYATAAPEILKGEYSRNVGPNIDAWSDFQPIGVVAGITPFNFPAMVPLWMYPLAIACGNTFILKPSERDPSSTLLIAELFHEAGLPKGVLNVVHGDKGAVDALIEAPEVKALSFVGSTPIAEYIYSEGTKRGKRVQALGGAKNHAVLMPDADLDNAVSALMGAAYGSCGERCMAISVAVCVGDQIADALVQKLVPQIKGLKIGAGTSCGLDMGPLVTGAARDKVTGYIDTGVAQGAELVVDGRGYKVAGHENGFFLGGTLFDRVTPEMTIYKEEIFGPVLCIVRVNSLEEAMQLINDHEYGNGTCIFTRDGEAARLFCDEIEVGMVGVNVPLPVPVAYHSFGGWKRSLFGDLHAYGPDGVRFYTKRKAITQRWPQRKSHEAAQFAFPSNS
structure (smiles),measurement,setting,value
Cc1ncc(COP(=O)(O)O)c(C=O)c1O [PLP],X-ray crystallography; mass spectrometry,KES23458,with the mass gain corresponding to aldimine-bound unmodified PLP
O=CCC(=O)O [malonic acid semialdehyde],"KES23458-coupled NADH formation, A340","KES23460; formed in situ from […] beta-alanine and pyruvate by KES23458, with or without CoA","significant activity with only one of the substrates tested, malonic acid semialdehyde"
CC(C)(COP(=O)(O)OP(=O)(O)OC[C@H]1O[C@@H](n2cnc3c(N)ncnc32)[C@H](O)[C@@H]1OP(=O)(O)O)[C@@H](O)C(=O)NCCC(=O)NCCS [CoA],"KES23458-coupled NADH formation, A340",KES23460; co-substrate malonate semialdehyde formed in situ,"In the presence of CoA, the transthioesterification step was observed to be significantly faster"

# — article PMC4907197 (Applied and Environmental Microbiology, 2016)
